# Laboratory results published in US7671054B1, “Reverse-turn mimetics and method relating thereto” (Choongwae Pharma Corporation, priority 2001, dated 2010).
# Test system: TCF4/β-catenin transcription (TOPFlash) in SW480 cells
# Assay: Reporter gene assay (TOPFlash luciferase)
# Type: cell-based
# Settings: Homo sapiens, SW480, Table 4; Reporter gene assay as described in Example 6; read-out: IC50
# Protocol: SW480 cells were transfected with the usage of Superfect™ transfect reagent (Qiagen, 301307). Cells were trypsinized briefly 1 day before transfection and plated on 6 well plate (5×10^5 cells/well) so that they were 50-80% confluent on the day of transfection.
# Four microgram (TOPFlash) and one microgram (pRL-null) of DNAs were diluted in 150 μl of serum-free medium, and 30 μl of Superfect™ transfect reagent was added. The DNA-Superfect mixture was incubated at room temperature for 15 min, and then, 1 ml of 10% FBS DMEM was added to this complex for an additional 3 hours of incubation. While complexes were forming, cells were washed with PBS twice without antibiotics.
# The DNA-Superfect™ transfect reagent complexes were applied to the cells before incubating at 37° C. at 5% CO2 for 3 hours. After incubation, recovery medium with 10% FBS was added to bring the final volume to 1.18 ml. After 3 hours incubation, the cells were harvested and reseeded to 96 well plate (3×10^4 cells/well). After overnight incubation at 37° C. at 5% CO2, the cells were treated with Compound A for 24 hours. Finally, the activity was checked by means of luciferase assay (Promega, E1960).
row,IC50 [µM],SMILES
1,1.5 ± 0.5,C=CCN1CC(=O)N2C(Cc3ccc(O)cc3)C(=O)N(Cc3ccc(F)cc3F)CC2N1C(=O)NCc1ccccc1 (stereo not shown) [Compound 170]
2,13.3 ± 1.4,CN1CC(=O)N2[C@@H](Cc3ccc(O)cc3)C(=O)N(Cc3ccc4cccnc4c3)C[C@@H]2N1C(=O)NCc1ccccc1 [Compound 95]
3,30.5 ± 4.1,CCCN1CC(=O)N2[C@@H](Cc3ccc(O)cc3)C(=O)N(Cc3cc(N(C)C(C)C)cc(C(F)(F)F)c3)C[C@@H]2N1C(=O)NCc1ccccc1 [Compound 155]
4,9.8 ± 0.7,CCN1CC(=O)N2[C@@H](Cc3ccc(O)cc3)C(=O)N(Cc3ccc(Cl)c(N(C)C)c3)C[C@@H]2N1C(=O)NCc1ccccc1 [Compound 125]
5,46.4 ± 3.7,C[C@@H]1[C@H]2N(C(=O)CN(C)N2C(=O)NCc2ccccc2)[C@@H](Cc2ccc(O)cc2)C(=O)N1Cc1ccc(Cl)c(N(C)C)c1 [Compound 83]
6,1.1 ± 0.3,C=CCc1nc2c(CN3C[C@H]4N(C(=O)CN(CC=C)N4C(=O)NCc4ccccc4)[C@@H](Cc4ccc(O)cc4)C3=O)cccc2s1 [Compound 220]
7,66.1 ± 6.8,CN1CC(=O)N2[C@@H](Cc3ccc(O)cc3)C(=O)N(Cc3ccc(F)cc3F)[C@@H](COC=O)[C@@H]2N1C(=O)NCc1ccccc1 [Compound 81]
8,3.5 ± 0.3,CCCN1CC(=O)N2[C@@H](Cc3ccc(O)cc3)C(=O)N(Cc3ccccc3)C[C@@H]2N1C(=O)NCc1ccccc1 [Compound 168]
9,0.9 ± 0.02,C=CCN1CC(=O)N2[C@@H](Cc3ccc(O)cc3)C(=O)N(Cc3cccc4c3OCCN4C)C[C@@H]2N1C(=O)NCc1ccccc1 [Compound 158]
10,1.6 ± 1.2,C=CCN1CC(=O)N2[C@@H](Cc3ccc(O)cc3)C(=O)N(Cc3cccc4sc(N5CCCCC5)nc34)C[C@@H]2N1C(=O)NCc1ccccc1 [Compound 218]
11,0.1 ± 0.1,C=CCN1CC(=O)N2[C@@H](Cc3ccc(O)cc3)C(=O)N(Cc3cccc4sc(N)nc34)C[C@@H]2N1C(=O)NCc1ccccc1 [Compound 225]
12,68.1 ± 8.9,CN1CC(=O)N2[C@@H](Cc3ccc(O)cc3)C(=O)N(Cc3ccc(F)cc3F)[C@@H](CO)[C@@H]2N1C(=O)NCc1ccccc1 [Compound 82]
13,3.3 ± 0.2,[2H]c1cc(C[C@H]2C(=O)N(Cc3cccc4ccccc34)C[C@H]3N2C(=O)CN(C)N3C(=O)NCc2ccccc2)cc([2H])c1O [Compound 166]
14,2.2,CN(C)c1cc(Cl)ccc1CN1C[C@H]2N(C(=O)CN(C)N2C(=O)NCc2ccccc2)[C@@H](Cc2ccc(O)cc2)C1=O [Compound 45]
15,0.6 ± 0.04,C=CCN1CC(=O)N2[C@@H](Cc3ccc(O)cc3)C(=O)N(Cc3cccc4scnc34)C[C@@H]2N1C(=O)NCc1ccccc1 [Compound 182]
16,5.8 ± 0.4,CN1CC(=O)N2[C@@H](Cc3ccc(O)cc3)C(=O)N(Cc3ccc(F)cc3F)C[C@@H]2N1C(=O)NCc1ccc(Br)cc1 [Compound 201]
17,7.5,CN1CC(=O)N2[C@@H](Cc3ccc(O)cc3)C(=O)N(Cc3ccccc3OC(F)(F)F)C[C@@H]2N1C(=O)NCc1ccccc1 [Compound 30]
18,3.3,CN1CC(=O)N2C(CN(Cc3cccc(Cl)c3)C(=O)[C@@H]2Cc2ccc(O)cc2)N1C(=O)NCc1ccccc1 (stereo partly shown) [Compound 18]
19,1.4 ± 0.7,C[C@H]1[C@@H]2N(C(=O)CN(C)N2C(=O)NCc2ccccc2)[C@@H](Cc2ccc(O)cc2)C(=O)N1Cc1ccc(F)cc1F [Compound 69]
20,7.9 ± 2,C[C@H]1[C@H]2N(C(=O)CN(C)N2C(=O)NCc2ccccc2)[C@@H](Cc2ccc(O)cc2)C(=O)N1Cc1ccc(Cl)c(N(C)C)c1 [Compound 80]
21,2.7 ± 0.3,C#CCNC(=O)c1ccccc1Cn1ncc2c(CN3C[C@H]4N(C(=O)CN(C)N4C(=O)NCc4ccccc4)[C@@H](Cc4ccc(O)cc4)C3=O)cccc21 [Compound 107]
22,6.9 ± 0.6,CN1CC(=O)N2[C@@H](Cc3ccc(O)cc3)C(=O)N(Cc3cccc(N4CCOCC4)c3)C[C@@H]2N1C(=O)NCc1ccccc1 [Compound 117]
23,4.3 ± 0.8,CN1CC(=O)N2[C@@H](Cc3ccc(NC=O)cc3)C(=O)N(Cc3cccc4ccccc34)C[C@@H]2N1C(=O)NCc1ccccc1 [Compound 68]
24,2.9 ± 0.4,[2H]c1cc(O)cc([2H])c1C[C@H]1C(=O)N(Cc2cccc3ccccc23)C[C@H]2N1C(=O)CN(C)N2C(=O)NCc1ccccc1 [Compound 172]
25,31 ± 6.4,C=C(C)CN1CC(=O)N2[C@@H](Cc3ccc(O)cc3)C(=O)N(Cc3ccc(Cl)c4cccnc34)C[C@@H]2N1C(=O)NCc1ccccc1 [Compound 149]

row,IC50 [µM],SMILES
1,8.7 ± 0.4,C=CCN1CC(=O)N2[C@@H](CN([C@H](C)c3ccc(Cl)c4cccnc34)C(=O)[C@@H]2Cc2ccc(O)cc2)N1C(=O)NCc1ccccc1 [Compound 189]
2,1.7 ± 0.3,C=CCN1CCN2[C@@H](Cc3ccc(O)cc3)C(=O)N(Cc3ccc(OC)cc3OC)C[C@@H]2N1C(=O)NCc1ccccc1 [Compound 213]
3,6.7,CN1CC(=O)N2C(CN(Cc3cccc(F)c3)C(=O)[C@@H]2Cc2ccc(O)cc2)N1C(=O)NCc1ccccc1 (stereo partly shown) [Compound 9]
4,4.1 ± 0.5,CN1CC(=O)N2[C@@H](Cc3ccc(O)cc3)C(=O)N(Cc3cccc(N4CCCC4)c3)C[C@@H]2N1C(=O)NCc1ccccc1 [Compound 63]
5,2.7 ± 0.2,C=CCN1CC(=O)N2[C@@H](Cc3ccc(NC=O)cc3)C(=O)N(Cc3ccc(F)cc3F)C[C@@H]2N1C(=O)NCc1ccccc1 [Compound 159]
6,11.7 ± 1,CCN1CC(=O)N2[C@@H](Cc3ccc(O)cc3)C(=O)N(Cc3cccc(N4CCOCC4)c3)C[C@@H]2N1C(=O)NCc1ccccc1 [Compound 123]
7,11.8,CC(C)N(C)c1cccc([C@H](C)N2C[C@H]3N(C(=O)CN(C)N3C(=O)NCc3ccccc3)[C@@H](Cc3ccc(O)cc3)C2=O)c1 [Compound 66]
8,11.4,CN1CC(=O)N2[C@@H](Cc3ccc(O)cc3)C(=O)N(Cc3cccc4ccccc34)C[C@@H]2N1C(=S)NCc1ccccc1 [Compound 35]
9,18.2,CN(C)c1cccc(F)c1CN1C[C@H]2N(C(=O)CN(C)N2C(=O)NCc2ccccc2)[C@@H](Cc2ccc(O)cc2)C1=O [Compound 42]
10,< 1.6,C=CCN1CC(=O)N2[C@@H](Cc3ccc(O)cc3)C(=O)N(Cc3cccc4sc(Cl)nc34)C[C@@H]2N1C(=O)NCc1ccccc1 [Compound 217]
11,1.6 ± 0.4,C=CCN1CC(=O)N2[C@@H](Cc3ccc(O)cc3)C(=O)N(Cc3ccc(OC)cc3)C[C@@H]2N1C(=O)NCc1ccccc1 [Compound 208]
12,22.3 ± 2.3,C[C@H](c1ccc(F)cc1F)N1CC2N(C(=O)CN(C)N2C(=O)NCc2ccccc2)[C@@H](Cc2ccc(O)cc2)C1=O (stereo partly shown) [Compound 195]
13,3.9,CN(Cc1ccccc1N)c1cccc(CN2C[C@H]3N(C(=O)CN(C)N3C(=O)NCc3ccccc3)[C@@H](Cc3ccc(O)cc3)C2=O)c1 [Compound 90]
14,8 ± 0.7,CN(C)Cc1cccc(CN2C[C@H]3N(C(=O)CN(C)N3C(=O)NCc3ccccc3)[C@@H](Cc3ccc(O)cc3)C2=O)c1 [Compound 116]
15,2.3 ± 0.2,C=CCN1CCN2[C@@H](Cc3ccc(O)cc3)C(=O)N(Cc3ccc(OC(F)(F)F)cc3)C[C@@H]2N1C(=O)NCc1ccccc1 [Compound 211]
16,7.5,CN1CC(=O)N2[C@@H](Cc3ccc(O)cc3)C(=O)N(Cc3ccc(Cl)cc3)C[C@@H]2N1C(=O)NCc1ccccc1 [Compound 28]
17,4.7 ± 3.5,C=CCN1CC(=O)N2[C@@H](Cc3ccc(O)cc3)C(=O)N(Cc3cccc4sc(-c5ccccc5)nc34)C[C@@H]2N1C(=O)NCc1ccccc1 [Compound 221]
18,2.7 ± 0.3,CN1CC(=O)N2[C@@H](Cc3ccc(O)cc3)C(=O)N(Cc3cccc4nn(CCN5CCOCC5)cc34)C[C@@H]2N1C(=O)NCc1ccccc1 [Compound 100]
19,16.6 ± 2.7,C#CCn1ncc2cccc(CN3C[C@H]4N(C(=O)CN(C)N4C(=O)NCc4ccccc4)[C@@H](Cc4ccc(O)cc4)C3=O)c21 [Compound 105]
20,25,CN1CC(=O)N2[C@@H](Cc3ccc(OCC(=O)O)cc3)C(=O)N(Cc3cccc4ccccc34)C[C@@H]2N1C(=O)NCc1ccccc1 [Compound 52]
21,13.9 ± 0.9,CN1CC(=O)N2[C@@H](Cc3ccc(O)cc3)C(=O)N(Cc3ccc4cn[nH]c4c3)C[C@@H]2N1C(=O)NCc1ccccc1 [Compound 89]
22,6.8 ± 1.3,C#CCn1ncc2ccc(CN3C[C@H]4N(C(=O)CN(C)N4C(=O)NCc4ccccc4)[C@@H](Cc4ccc(O)cc4)C3=O)cc21 [Compound 93]
23,13.6,Cc1ccc([C@@H](C)N2C[C@H]3N(C(=O)CN(C)N3C(=O)NCc3ccccc3)[C@@H](Cc3ccc(O)cc3)C2=O)cc1 [Compound 41]
24,14.5,CN1CC(=O)N2C(CN(Cc3ccccc3F)C(=O)[C@@H]2Cc2ccc(O)cc2)N1C(=O)NCc1ccccc1 (stereo partly shown) [Compound 8]

row,SMILES,IC50 [µM]
1,CN1CC(=O)N2[C@@H](Cc3ccc(O)cc3)C(=O)N(Cc3ccccc3C(F)(F)F)C[C@@H]2N1C(=O)NCc1ccccc1 [Compound 32],4.1
2,C=CCN1CC(=O)N2[C@@H](Cc3ccc(OP(=O)(O)O)cc3)C(=O)N(Cc3cccc4scnc34)C[C@@H]2N1C(=O)NCc1ccccc1 [Compound 197],0.7 ± 0.2
3,CCOP(=O)(CC(=O)Nc1ccc(C[C@H]2C(=O)N(Cc3cccc4ccccc34)C[C@H]3N2C(=O)CN(C)N3C(=O)NCc2ccccc2)cc1)OCC [Compound 84],46.7 ± 6.7
4,C=CCN1CC(=O)N2[C@@H](Cc3ccc(O)cc3)C(=O)N(Cc3cccc4c3OCCO4)C[C@@H]2N1C(=O)NCc1ccccc1 [Compound 203],0.7 ± 0.1
5,CN1CC(=O)N2C(CN(Cc3ccc(F)cc3)C(=O)[C@@H]2Cc2ccc(O)cc2)N1C(=O)NCc1ccccc1 (stereo partly shown) [Compound 10],4
6,C=CCN1CC(=O)N2[C@@H](Cc3ccc(OP(=O)(O)O)cc3)C(=O)N(Cc3ccccc3)C[C@@H]2N1C(=O)NCc1ccccc1 [Compound 174],1 ± 0.1
